How the values were obtained:
Format in all cases: cell-based, human
NCI-H1975 cells = assay: Clonogenic / CellTiter-Glo assay with allosteric degraders; conditions: compared to osimertinib
Procedure: Clonogenic assay: Cells were seeded at desired densities in two to three replicates in 6-well plates and allowed to attach overnight. The following day cells were treated with the indicated compounds. Media containing the appropriate compounds was replenished every 48-72 hours. At the end of the assay, the cells were washed once with PBS, fixed and stained with crystal violet solution (Sigma Aldrich, HT90132) for 20 minutes, washed with water, and allowed to dry before scanning. For experiments shown in FIG. 18E erlotinib concentration were determined to match the cell viability effect to 1 μM GNE-069 in each cell line, so that 1 μM erlotinib was applied to PC-9 and HCC2935, and 100 nM erlotinib was applied to HCC4006 and HCC827. […]
Cell viability and cell death quantification: For experiments shown in FIGS. 24C, 27D, the indicated cells were seeded at desired densities in replicates in 24-well plates and allowed to attach overnight. […] At each media change, cell viabilities were quantified using CellTiter-Glo Luminescent Cell Viability Assay (Promega, G7572). […] Induction of cell death was quantified 24 h post-treatment using Caspase-Glo 3/7 Assay System (Promega, G8093) and cell survival were measured 72 h post-treatment using CellTiter-Glo Luminescent Cell Viability Assay (Promega, G7572). […]

ATF4, CHOP, GADD34 = assay: qRT-PCR of pro-death genes downstream of ER stress; conditions: PC9 and NCI-H1975 cells, day three
Procedure: RNA extraction and qRT-PCR: RNA was extracted using Qiagen RNeasy Plus kit following manufacturer's instruction. RNA was reverse transcribed using High-Capacity cDNA Reverse Transcription Kit (Thermo Fisher Scientific Cat. No. 4368814). qPCRs were performed using TaqMan™ Fast Advanced Master Mix (Thermo Fisher Scientific Cat. No. 4444557) on ABI QuantStudio 7 Flex Real-Time PCR Systems. HPRT1 was used as the internal control to quantify relative gene expression levels. Taqman probes were obtained from Thermo Fisher Scientific (Cat. No. 431182, 4448490). These probes were used in the study: ATF4 Hs00909569_g1, DDIT3/CHOP Hs00358796_g1, PPP1R15A/GADD34 Hs00169585_m1, SLC7A5 Hs01001183_m1, ETV4 Hs00385910_m1, SPRY4 Hs00540086_m1, DUSP6 Hs04329643_s1, HPRT1 Hs02800695_m1.

PC9 cells = assay: Caspase-Glo 3/7 cell death assay, EGFRi+CCT020312; conditions: Caspase-Glo 3/7, 24 h post-treatment
Procedure: Cell viability and cell death quantification: For experiments shown in FIGS. 24C, 27D, the indicated cells were seeded at desired densities in replicates in 24-well plates and allowed to attach overnight. The following day cells were treated with the indicated compounds. Media containing the appropriate compounds was replenished every 48 hours. At each media change, cell viabilities were quantified using CellTiter-Glo Luminescent Cell Viability Assay (Promega, G7572). For experiments shown in FIG. 191 and FIG. 29D, PC9 cells were seeded in replicates in 96-well plates and allowed to attach overnight. The following day cells were treated with the indicated compounds or compound combinations at the indicated concentrations. Induction of cell death was quantified 24 h post-treatment using Caspase-Glo 3/7 Assay System (Promega, G8093) and cell survival were measured 72 h post-treatment using CellTiter-Glo Luminescent Cell Viability Assay (Promega, G7572). CCT020312 was obtained from EMD Millipore (324879).

| SMILES | single agent anti-growth activity (NCI-H1975 cells) | induction of ISR genes in combination with erlotinib or osimertinib (ATF4, CHOP, GADD34) | cell death induction in combination with erlotinib or osimertinib (PC9 cells) |
| --- | --- | --- | --- |
| O=C(Nc1nccs1)C(c1cc(F)ccc1O)N1Cc2ccccc2C1=O (stereo not drawn) [EAI-045] | very modest single agent activity | – | – |
| CCN(CC)CCC(=O)N1N=C(c2c(-c3ccccc3)c3cc(Br)ccc3[nH]c2=O)CC1c1ccc(Br)cc1 (stereo not drawn) [CCT020312] | – | further boosted induction of ISR genes by erlotinib and osimertinib | enhanced cell death induction |

Reference: patent publication US20230122540A1, “SYSTEMS AND METHODS TO TRACK THE EVOLUTION OF SINGLE CELLS” (Genentech, Inc., priority 2020, published 2023)
